# Reference: US20040152759A1, “Combination administration of an indolinone with a chemotherapeutic agent for cell proliferation disorders” (priority 2002, published 2004)
# “And” between values parts separate entries of the source, which are not always exact repeats. Identical values can stand only once. Counter-ions that a name gives are not always drawn. Like-named read-outs stand apart in the source and are kept apart here.
# Legend:
# [1] = system: LS174t human colon carcinoma; assay type: in vivo; conditions: Day 23
# Method: Methods for LS174t Human Colon Cancer Model
# (§1) 1×10^5 to 1×10^6 tumor cells were injected into the subcutaneous region of the hind flank of female nu/nu mice (n=10). Tumor growth was monitored twice a week for 2-4 weeks by caliper measurement.
# (§2) Tumors were grown to a volume of approximately 100 mm^3 prior to dosing.
# NCI-H526 SCLC cells = assay: NCI-H526 small cell lung carcinoma subcutaneous xenograft model; assay type: in vivo, human (xenograft in athymic nu/nu mice); conditions: dosing began day 18 after implantation
# Method: Methods for NCI-H526-Human Small Cell Lung Carcinoma Model
# 1×10^5 to 1×10^6 tumor cells were injected into the subcutaneous region of the hind flank of female nu/nu mice (n=10). Tumor growth was monitored twice a week for 2-4 weeks by caliper measurements.
# NCI-H526 SCLC cells were cultured using standard technique in RPMI 1640 supplemented with 10% fetal bovine serum, 2 mM glutamine, 1 mM sodium pyruvate (Life Technologies Inc., Gaithersburg, Md.), and maintained routinely in a humidified chamber at 37° C. and 5% carbon dioxide.
# Cells to be implanted in mice were harvested from cell culture flasks during exponential growth, washed once with sterile phosphate-buffered saline (PBS), counted, and resuspended in PBS to a suitable concentration prior to implantation.
# Nine to twelve week old female athymic nu/nu mice purchased from Charles River Laboratories (Wilmington, Mass.) were used.
# Mice received subcutaneous injections into the hind flank on Day 0 with 5×10^6 NCI-H526 cells. Subcutaneous tumor-bearing athymic mice (250-300 mm^3 tumor volume) were treated either PO once daily with Compound 1 to the end of the study, intraperitoneally once daily with Cisplatin for the first 5 days, or a combination of the two. […] Tumor growth was measured twice weekly using Vernier calipers for the duration of the treatment. Tumor volumes were calculated as the product of length× width× height.
# [2] = system: HT-29 human colon carcinoma; assay type: in vivo; conditions: Compound 1 20 mg/kg PO QD to end, monotherapy, Day 38
# Method: Methods for HT-29 Human Colon Cancer Model
# as §1, §2
# [3] = system: MX-1 human breast carcinoma; assay type: in vivo
# From the text: Methods for MX1 Human Breast Cancer Model
# Mice/Husbandry: Female nu/nu mice (Harlan), 13 weeks of age (at pair-match; Day 1), were fed ad libitum water and an irradiated standard rodent diet. Mice were housed in static microisolators on a 12-hour light cycle. The animal care and use program specifically complies with recommendations of the Guide for Care and Use of Laboratory Animals with respect to restraint, husbandry, surgical procedures, feed and fluid regulation, and veterinary care is AAALAC accredited.
# Tumor Implantation: Mice were implanted subcutaneously with 1 mm^3 MX-1 human breast carcinoma fragments in the flank. Tumors were monitored initially twice weekly, and then daily as the neoplasms reached the desired size, approximately 100 mg. […] Estimated tumor weight was calculated using the formula:
# Tumor Weight(mg)=w^2×L divided by 2
# where w=width and L=length in mm of a MX-1 carcinoma.
# as §2
# This example evaluates the effects of combined treatment of Compound 1 and Docetaxel on efficacy and toxicity in a human breast cancer model. Tumors were grown to a volume of approximately 100 mm^3 prior to dosing.
# This example evaluates the effects of combined treatment of Compound 1 and 5-FU on efficacy and toxicity in a human breast cancer model
# as §2
# This example evaluates the effects of combined treatment of Compound 1 and Doxorubicin Hydrochloride on efficacy and toxicity in a human breast cancer model.
# Tumors were grown to a volume of approximately 100 mm^3 prior to dosing. […] (see FIG. 6).
# MDA-MB-435 tumor cells = assay: MDA-MB-435 orthotopic human breast carcinoma bone marrow colonization model (survival); assay type: in vivo, human (xenograft in nu/nu mice); conditions: vehicle 46 days
# Method: Methods for the MDA-MB-435 Human Breast Cancer Model
# 1×10^5 MDA-MB-435 tumor cells were injected into the left cardiac ventricle of female nu/nu mice (n=10). Mice were monitored for weight loss (>20%) and hind limb paralysis as an indicator of bone marrow colonization.
# This example evaluates the effects of combined treatment of Compound 1 and Docetaxel on efficacy and toxicity in a human breast cancer model. Efficacy is indicated by improved survival, which, in turn, is indicated by hind-limb paralysis or weight loss (>20%) due to bone marrow colonization of tumor cells.
# Tumor cells were injected into the mammary fat pad of female nu/nu mice and mice were monitored for weight loss (>20%) and hind limb paralysis as an indicator of bone marrow colonization of tumor cells.
# Tumor cells were injected into the left cardiac ventricle of female nu/nu mice and mice were monitored for weight loss (>20%) and hind limb paralysis as an indicator of bone marrow colonization
smiles,measurement,setting,value
"CCc1c2c(nc3ccc(OC(=O)N4CCC(N5CCCCC5)CC4)cc13)-c1cc3c(c(=O)n1C2)COC(=O)[C@]3(O)CC [CPT-11, Irinotecan, reference compound]",% Inhibition,"[1]; CPT-11 100 mg/kg IP QWK x 3, monotherapy, 100 mg/kg",64% and 63.6%
"N.N.[Cl][Pt][Cl] [Cisplatin, reference compound]",Day tumor reached 900 mm^3,"NCI-H526 SCLC cells; Cisplatin 1.5 mg/kg IP QD x 5, monotherapy",48 days
"CCN(CC)CCNC(=O)c1c(C)[nH]c(/C=C2\C(=O)Nc3ccc(F)cc32)c1C [Compound 1, 5-(5-Fluoro-2-oxo-1,2-dihydroindol-3-ylidenemethyl)-2,4-dimethyl-1H-pyrrole-3-carboxylic acid(2-diethylamino-ethyl)amide]",% Inhibition,[2],78% and 77.8%
same,% Inhibition,"[1]; Compound 1 40 mg/kg PO QD to end, monotherapy, 40 mg/kg",68% and 67.9%
same,Day tumor reached 900 mm^3,"NCI-H526 SCLC cells; Compound 1 40 mg/kg PO QD, monotherapy",41 days
same,% Inhibition,"[3]; Biological Example 1, Compound 1 40 mg/kg PO QD to end, monotherapy, Day 20, 40 mg/kg",52% and 53%
same,% Inhibition,"[3]; Biological Example 2, Compound 1 40 mg/kg PO QD to end, monotherapy, Day 17",63%
same,% Inhibition,"[3]; Biological Example 3, Compound 1 40 mg/kg PO QD to end, monotherapy, Day 15",57%
same,% Inhibition,"[3]; Biological Example 4, Compound 1 40 mg/kg PO QD to end, monotherapy, Day 14",62%
same,Median Survival,"MDA-MB-435 tumor cells; Compound 1 40 mg/kg PO QD to end, monotherapy",52 days
"O=c1[nH]cc(F)c(=O)[nH]1 [Compound 5-FU, 5-Fluorouracil]",% Inhibition,"[3]; Biological Example 3, 5-FU 100 mg/kg IV QWK x 3, monotherapy, Day 15",45%
CC(=O)O[C@@]12CO[C@@H]1C[C@H](O)[C@@]1(C)C(=O)[C@H](O)C3=C(C)[C@@H](OC(=O)[C@H](O)[C@@H](NC(=O)OC(C)(C)C)c4ccccc4)C[C@@](O)([C@@H](OC(=O)c4ccccc4)[C@H]21)C3(C)C [Docetaxel],% Inhibition,"[3]; Biological Example 1, Docetaxel 10 mg/kg IV QWK x 3, monotherapy, Day 16",60%
same,% Inhibition,"[3]; Biological Example 1, Docetaxel 15 mg/kg IV QWK x 3, monotherapy, Day 16",95%
same,% Inhibition,"[3]; Biological Example 2, Docetaxel 10 mg/kg IV QWK x 3, monotherapy, Day 14",36%
same,% Inhibition,"[3]; Biological Example 2, Docetaxel 15 mg/kg IV QWK x 3, monotherapy, Day 17",90%
same,Median Survival,"MDA-MB-435 tumor cells; Docetaxel 5 mg/kg IP QWK x 3, monotherapy",52 days
COc1cccc2c1C(=O)c1c(O)c3c(c(O)c1C2=O)C[C@@](O)(C(=O)CO)C[C@@H]3O[C@H]1C[C@H](N)[C@H](O)[C@H](C)O1 [Doxorubicin Hydrochloride],% Inhibition,"[3]; Biological Example 4, Doxorubicin Hydrochloride 4 mg/kg IV QOD x 3, monotherapy, Day 14",48%
